According to PMC6701825, “Antiproliferative and Antimigratory Effects of a Novel YAP–TEAD Interaction Inhibitor Identified Using in Silico Molecular Docking” (Journal of Medicinal Chemistry, 2019):
“Also recorded” adds a separate entry of the source.

Columns and labels:
nano-luciferase enzyme = molecular target: T1, nano-luciferase enzyme (Oplophorus gracilirostris, UniProt Q9GV45, A31E/A60N/A81I/F95D/I117V/K70R/L54V/L99Q/M102K/N193R/P142E/Q151K/Q38R/Q45L/V71I/Y165I); experiment: Direct inhibition of nanoluciferase enzyme in conditioned media; format: biochemical; conditions: conditioned media containing nano-luciferase, indicated concentrations
T1 construct: heterologous secretion signal (sec-Nluc) (N); expressed in transfected cells; probably the TEAD-NLUC HeLa reporter cells
T1 sequence (Q9GV45 other isoform, or with tags, fused parts or gaps with the stated changes): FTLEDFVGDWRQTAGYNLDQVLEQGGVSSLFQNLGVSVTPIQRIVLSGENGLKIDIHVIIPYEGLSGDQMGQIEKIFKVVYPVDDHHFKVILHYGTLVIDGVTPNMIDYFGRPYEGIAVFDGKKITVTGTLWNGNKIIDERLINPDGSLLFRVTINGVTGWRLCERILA
Description: Cell conditioned media containing nano-luciferase enzyme was incubated with the indicated
concentrations of CPD3 (A) or CPD3.1 (B) and nano-luciferase activity assayed.
(1 picture or pasted object on this page, not shown here)

[1] = system: TEAD-dependent transcriptional activity; experiment: 8xTEAD secreted nanoluciferase (TEAD-NLUC) reporter assay in HeLa cells; format: cell-based, human; conditions: HeLa TEAD-NLUC, 6 h
From the text: The shortlisted sets of 16 compounds were first assayed for their ability to inhibit TEAD-dependent transcriptional activity in HeLa cells that had been transduced with a recombinant lentiviral vector expressing secreted bioluminescent nanoluciferase (NLUC) reporter gene enzyme, which is expressed under the control of a promoter region containing eight TEAD DNA-binding elements (TEAD-NLUC).
Compounds were initially screened for ability to inhibit TEAD-dependent transcriptional activity in HeLa cells transduced with a lentiviral vector expressing secreted nanoluciferase under the control of multimerized TEAD consensus elements (5′-[…]-3′). 8xTEAD NanoLuc was generated by cloning the 8xTEAD promoter from the 8xTEAD-Luc plasmid (Addgene #34615) into the pENTR gateway entry vector (Promega). This was then recombined into pLNT-sec-Nluc-2A-eGFP destination vector (supplied by Tristan McKay; University of Manchester). Lentiviruses were generated by Viafect-mediated co-transfection of pLNT8x-TEAD-sec-Nluc-2A-eGFP, Δ8.9, and VSV-G vectors into HEK293T cells (ATCC), and lentiviral-containing culture supernatants were used to infect HeLa cells in the presence of 6 μg/mL polybrene. For compound screening, 8xTEAD NanoLuc-transduced HeLa cells were seeded at 2 × 10^4 cells/well in 96-well plates. After 48 h, the cells were washed in PBS and incubated with test compounds at the indicated concentrations for 2 h. The cells were washed again in PBS and incubated with the compound for a further 4 h. Conditioned culture medium (50 μL) was assayed for secreted nanoluciferase activity using NanoGlo activity assays kit (Promega) and a Glomax Discover luminometer.

[2] = system: TEAD-independent minimal TNT1 gene promoter; experiment: Minimal TNT1 promoter-luciferase (minP-LUC) reporter in HeLa cells; format: cell-based, human; conditions: 6 h
From the text: (§1) Activation of TEAD transcription factors in response to YAP binding induces the expression of many genes that encode proteins known to be involved in promoting cell proliferation and migration (see Supplement Figure 14). The best characterized TEAD target genes associated with the promotion of cell proliferation and migration are CCN1 and CTGF.[39],[59],[60] […] We therefore tested whether CPD3 inhibited the promoter activity of known TEAD target genes, CCN1 and CTGF, in the HeLa transformed cell line and primary rat VSMCs (RaVSMCs). Cells were transfected with plasmids expressing bioluminescent firefly luciferase reporter genes under the control of either the CCN1 or CTGF promoter regions. […] As both CCN1 and CTGF are classical TEAD target genes, this is consistent with the inhibition of TEAD activity by CPD3.
TNT1-minP reporter containing the Troponin-T minimal promoter was generated by digesting 8xGTIIC-luciferase plasmid (Addgene #34615) with Kpn1 and BglII to remove the TEAD elements, followed by blunt end re-ligation. A 2.177 kb fragment of the human CCN1 promoter containing two proximal TEAD elements (Hg19;chr1:86044316–chr1:86046493) was described previously[39] and cloned into pGL4-luciferase (Promega). […]

CCN1 promoter = experiment: CCN1-luciferase reporter in RaVSMCs; format: cell-based, rat
From the text: as §1
Figure 9 Compound 3.1 inhibits TEAD target gene expression, cell proliferation, and cell migration in RaVSMCs. […] Total RNA was analyzed for mRNA levels of TEAD-target genes (D) or constitutive housekeeping genes (E) by qRT-PCR. […] Total cell lysates were analyzed for CCN1 protein expression by Western blotting (F). […] RaVSMCs (I) or HuVSMC (J) were treated with indicated concentrations of compound 3.1 and cell migration quantified using IncuCyte real time migration assay (n = 4). […]

[3] = system: housekeeping genes PGK1, TBP, GAPDH, 36B4; experiment: qRT-PCR of TEAD-independent housekeeping gene mRNA in RaVSMCs; format: cell-based, rat
Description: Figure 9 Compound 3.1 inhibits TEAD target gene expression, cell proliferation, and cell migration in RaVSMCs. RaVSMCs stably transduced with TEAD-NLUC (A) or transiently transfected with CCN1-LUC or CTGF-LUC were treated with the indicated concentrations of compound 3.1 for 6 hr. Cell conditioned media (A) or cell lysates (B−C) were assayed for nanoluciferase or fire-fly luciferase activity, respectively. VSMC were treated with 60 μM compound 3.1 for 6 h (n = 3). Total RNA was analyzed for mRNA levels of TEAD-target genes (D) or constitutive housekeeping genes (E) by qRT-PCR. VSMC were treated with indicated concentrations of compound 3.1 for 16 hr (n = 4). Total cell lysates were analyzed for CCN1 protein expression by Western blotting (F). […] RaVSMCs (I) or HuVSMC (J) were treated with indicated concentrations of compound 3.1 and cell migration quantified using IncuCyte real time migration assay (n = 4).
Quantitative reverse transcription (RT)-PCR: quantification of mRNA was performed by RT-qPCR, as described previously.[39] Total RNA was extracted using Ambion PureLink kits (Thermo Fisher) and reverse-transcribed using QuantiTect RT kit (Qiagen) and random primers. Quantitative PCR was performed using Roche SYBR Green using a Qiagen Roto-GeneRotor-Gene Q PCR machine (20 seconds@95 °C; 20 seconds @62 °C; 20 seconds@72 °C). […]

Structure (SMILES) | direct inhibitory effect on NLUC enzymatic activity (nano-luciferase enzyme) | concentration at which TEAD-dependent NLUC secretion was significantly inhibited [1] [µM] | activity of TEAD-independent minimal TNT1 promoter (minP-LUC) [2] | IC50 (CCN1 promoter; Rattus norvegicus, 6 hr, read-out: IC50, CCN1-LUC (as printed in Figure 9B)) [µM] | steady-state mRNA levels of housekeeping genes PGK1, TBP, GAPDH, 36B4 ([3]; VSMC, 60 μM, 6 h) | IC50 ([1]; Homo sapiens, HeLa, read-out: IC50, TEAD-dependent NLUC secretion) [µM] | CCN1-luciferase reporter gene activity (CCN1 promoter; 6 h, indicated concentrations) | steady-state mRNA level of housekeeping gene 36B4 ([3]; RaVSMCs, Supplement Figure 4)
Cc1ccc2c(c1)c1c3n2CCNC3CCC1 (centres unmarked) [CPD3.1] | do not non-specifically inhibit nano-luciferase; also recorded: without having any direct inhibitory effect on NLUC activity | 20 | without affecting expression | 48 | unaffected |  |  | 
Cc1ccc2c(c1)c1c3n2CCN(CC(O)CN2CCN(C(=O)c4ccco4)CC2)C3CCC1 (centres unmarked) [CPD3] | do not non-specifically inhibit nano-luciferase; also recorded: did not affect cell viability (Supplement Figure 6) or have any direct inhibitory effect on NLUC enzymatic activity | 60 | not inhibited by any concentration |  |  | > 110 | strong and significant dose-dependent inhibition | but not the TEAD-independent housekeeping gene 36B4
